Laboratory results from patent US5109003A, “Method for the treatment of peptic ulcer disease” (Hoechst Japan Limited, priority 1989, dated 1992).
Like-named read-outs stand apart in the source and are kept apart here.

Experiments:
[1] = system: stress-induced gastric ulcer; assay: Protective effect on gastric ulcer induced by restraint plus water-immersion stress in rats; format: in vivo, rat (male Sprague-Dawley); settings: for Ulcer index / inhibition in vivo at 10 mg/kg: 10 mg/kg p.o.; for Ulcer index: mean ± S.E.; for inhibition in vivo at 10 mg/kg: Rattus norvegicus, po
Description: 1.1. Protective Effect of Gastric Ulcer Induced by Restraint Plus Water-immersion Stress in Rats
Male Sprague-Dawley rats weighing 250-300 g were used in groups of 5-35. The animals were given the compounds by the oral route after fasting overnight. Immediately, under light ether anesthesia they were placed in a restraint box and immersed in water at 23° C. for 6 or 7 hours. Then the animals were sacrificed, and their stomachs were isolated, inflated with 8 ml of 1% formalin for 10 minutes, opened along the greater curvature, and examined for the presence of gastric erosions. The longest axis of each erosion induced on the glandular section of the stomach was measured, and the sum of the lengths was defined as an ulcer index.

[2] = in vivo; settings: mouse, mice
Excerpt: The intravenous or intraperitoneal LD50 values of the compounds of this invention and the reference compound (propentofylline) for mice are shown in Table 4.

[3] = system: ethanol-induced gastric ulcer; assay: Protective effect on ethanol-induced gastric ulcer in rats; format: in vivo, rat (male Sprague-Dawley); settings: 10 mg/kg p.o.; for Ulcer index: mean ± S.E.; for inhibition in vivo at 10 mg/kg: Rattus norvegicus, po, 1 h
Description: 1.2. Protective Effect on Ethanol-induced Gastric Ulcer in Rats
Male Sprague-Dawley rats weighing 300-400 g were used in groups of 4-36. After fasting overnight, the animals were given orally the compounds. Thirty minutes later they received absolute ethanol (1 ml/body) orally and were sacrificed after 60 minutes. The stomach was removed and examined for erosions. The ulcer index was obtained in the same way as under 1.1.

[4] = in vivo; settings: mouse, mice, oral, read-out: oral LC50
[5] = system: peptic ulcer; settings: Ter. Arkh. 57, 52-55, 1985; JP Laid-Open 225317/88; cited from earlier work
[6] = control distilled water (26.0 ± 2.2 mm)
[7] = iv, i.v., read-out: LD50 (intravenous)
[8] = control distilled water (93.1 ± 8.9 mm)
[9] = control 10% EtOH (32.9 ± 3.3 mm)
[10] = control 10% EtOH (78.9 ± 8.5 mm)
[11] = ip, i.p., read-out: LD50 (intraperitoneal)

| Compound | Ulcer index [1, 6] [mm] | inhibition in vivo at 10 mg/kg ([1]; vs. control distilled water) [%] | LD50 [2, 7] [mg/kg] | Ulcer index [3, 8] [mm] | inhibition in vivo at 10 mg/kg ([3]; vs. control distilled water) [%] | other results |
| --- | --- | --- | --- | --- | --- | --- |
| Cn1cnc2c1c(=O)n(CCCCC(C)(C)O)c(=O)n2C [Compound 7] | 15.8 ± 4.4 | 39.2 | > 200 |  |  |  |
| CCCn1cnc2c1c(=O)n(CCCC(C)(C)O)c(=O)n2CC [Compound 3] | 12.8 ± 2.5 | 50.8 | > 200 |  |  |  |
| CCOCn1cnc2c1c(=O)n(CCCCC(C)(C)O)c(=O)n2CC [Compound 18] | 6.9 ± 2.1 | 73.5 | > 200 | 16.8 ± 7.1 | 82 |  |
| CCCn1cnc2c1c(=O)n(CCCCCC(C)(C)O)c(=O)n2CC [Compound 14, 3-Ethyl-1-(6-hydroxy-6-methylheptyl)-7-propylxanthine] |  |  | > 200 |  |  | Ulcer index [1, 9]: 4.8 ± 1.7 mm; inhibition in vivo at 10 mg/kg ([1]; vs. control 10% EtOH): 85.4%; Ulcer index [3, 10]: 3.7 ± 1.1 mm; inhibition in vivo at 10 mg/kg ([3]; listed under control 10% EtOH): 95.3% |
| CCCn1c(=O)c2c(ncn2CCCCC(C)(C)O)n(C)c1=O [Compound 8] | 12.1 ± 2.9 | 53.5 | 100 to 200 |  |  |  |
| CCn1c(=O)n(CCCCCC(C)(C)O)c(=O)c2c1ncn2C [Compound 4] | 10.6 ± 1.8 | 59.2 | 100 to 200 | 21.2 ± 8.4 | 77.2 |  |
| CCn1cnc2c1c(=O)n(CCCCC(C)(C)O)c(=O)n2CC [Compound 16, 3,7-Diethyl-1-(5-hydroxy-5-methylhexyl)-xanthine] | 6.8 ± 1.6 | 73.8 | > 200 | 17.0 ± 7.1 | 81.7 |  |
| C=CCn1cnc2c1c(=O)n(CCCCC(C)(C)O)c(=O)n2CC [Compound 19, 7-Allyl-3-ethyl-1-(5-hydroxy-5-methylhexyl)-xanthine] | 10.2 ± 2.4 | 60.8 | > 100 | 5.2 ± 2.0 | 94.4 |  |
| C=CCn1cnc2c1c(=O)n(CCCCC(C)(C)O)c(=O)n2C [Compound 20, 7-Allyl-1-(5-hydroxy-5-methylhexyl)-3-methylxanthine] | 10.6 ± 3.0 | 59.2 | > 100 |  |  |  |
| C=CCCn1cnc2c1c(=O)n(CCCCC(C)(C)O)c(=O)n2C [Compound 6] |  |  |  |  |  | Ulcer index [1, 9]: 17.4 ± 4.5 mm; inhibition in vivo at 10 mg/kg ([1]; vs. control 10% EtOH): 47.1%; LD50 [2, 11]: 150 to 300 mg/kg |
| CCn1c(=O)n(CCCCC(C)(C)O)c(=O)c2c1ncn2C [Compound 2] | 6.5 ± 1.6 | 75 | > 200 | 23.5 ± 7.0 | 74.8 | times more effective than propentofylline in improving stress-induced gastric ulcers ([1]; stress-induced gastric ulcers): 2.5 times |
| CCCn1cnc2c1c(=O)n(CCCC(C)(O)CC)c(=O)n2C (stereo not drawn) [Compound 12] |  |  |  | 26.1 ± 10.8 | 72 | LD50 [2, 11]: 300 to 600 mg/kg |
| Cn1c(=O)n(CCCCC(C)(C)O)c(=O)c2[nH]cnc21 [Compound 5] | 7.5 ± 2.0 | 71.2 | > 200 |  |  | LD50 [4]: > 2500 mg/kg |
| CCn1cnc2c1c(=O)n(CCCCCC(C)(C)O)c(=O)n2CC [Compound 13, 3,7-diethyl-1-(6-hydroxy-6-methylheptyl)-xanthine] | 5.0 ± 1.0 | 80.8 | > 200 | 15.7 ± 9.4 | 83.1 |  |
| C=CCCn1c(=O)c2c(ncn2CCCCC(C)(C)O)n(CC)c1=O [Compound 21, 1-(3-Butenyl)-3-ethyl-7-(5-hydroxy-5-methylhexyl)-3-xanthine] |  |  |  | 19.2 ± 9.2 | 79.4 |  |
| CCCn1cnc2c1c(=O)n(CCCCC(C)(C)O)c(=O)n2CC [Compound 1] | 8.7 ± 1.6 | 66.5 | 100 to 200 | 12.0 ± 6.9 | 87.1 |  |
| CCn1c(=O)n(CCCCCC(C)(C)O)c(=O)c2c1ncn2C(C)C [Compound 15, 3-Ethyl-1-(6-hydroxy-6-methylheptyl)-7-isopropylxanthine] |  |  |  |  |  | Ulcer index [1, 9]: 6.6 ± 1.6 mm; inhibition in vivo at 10 mg/kg ([1]; vs. control 10% EtOH): 79.9%; Ulcer index [3, 10]: 4.2 ± 2.2 mm; inhibition in vivo at 10 mg/kg ([3]; listed under control 10% EtOH): 94.7%; LD50 [2, 11]: > 600 mg/kg |
| CCCn1cnc2c1c(=O)n(CCCCC(C)=O)c(=O)n2C [Compound 22, 1-(5'-oxohexyl)-3-methyl-7-propyl xanthine, reference compound] | 18.4 ± 3.0 | 29.2 |  |  |  | Ulcer index [3, 10]: 34.7 ± 8.4 mm; inhibition in vivo at 10 mg/kg ([3]; listed under control 10% EtOH): 62.7%; antiulcer activity (in words, from literature) [5]: superior to that of pentoxifylline |
| Cn1c(=O)n(CCCCC(C)(C)O)c(=O)c2c1ncn2CCC(O)CO (stereo not drawn) [Compound 9] | 17.8 ± 3.3 | 31.5 | > 100 |  |  |  |
| CCCCn1cnc2c1c(=O)n(CCCCC(C)(C)O)c(=O)n2CC [Compound 17, 7-Butyl-3-ethyl-1-(5-hydroxy-5-methylhexyl)-xanthine] |  |  |  |  |  | Ulcer index [1, 9]: 12.5 ± 3.3 mm; inhibition in vivo at 10 mg/kg ([1]; vs. control 10% EtOH): 62%; Ulcer index [3, 10]: 13.0 ± 8.3 mm; inhibition in vivo at 10 mg/kg ([3]; listed under control 10% EtOH): 83.5%; LD50 [2, 11]: > 600 mg/kg |
| CCOCCn1c(=O)c2c(ncn2CCCCC(C)(C)O)n(C)c1=O [Compound 10] | 17.8 ± 3.3 | 31.5 | > 200 |  |  |  |
| CCCn1cnc2c1c(=O)n(CCCCCC(C)(C)O)c(=O)n2C [Compound 11] | 16.0 ± 3.8 | 38.5 |  |  |  | LD50 [2, 11]: 150 to 300 mg/kg |
| CC(=O)CCCCn1c(=O)c2c(ncn2C)n(C)c1=O [pentoxifylline] |  |  |  |  |  | antiulcer activity (in words, from literature) [5]: antiulcer effects |
